From patent US12098134B2, “Benzo-heterocyclic compound and composition for preventing or treating cancer disease, containing same as active ingredient” (INDUSTRY ACADEMIC COOPERATION FOUNDATION KEIMYUNG UNIVERSITY, priority 2018, dated 2024)

How the values were obtained:
[1] = test system: breast cancer cell line MDA-MB-231; assay: Anti-proliferative activity in breast cancer cell line MDA-MB-231; format: cell-based; conditions: MDA-MB-231 cell line
Text: Anti-proliferative activity against breast cancer cell line MDA-MB-231 was investigated using the compounds synthesized through the above Examples 1 to 4.

SH-SY5Y cells = assay: Soft agar colony formation assay; format: cell-based, human; conditions: cultured 1-2 weeks
Procedure: Anchorage-independent cell growth is a characteristic of cell carcinogenesis and indicates the ability of transformed cells to grow independently of a solid surface. The soft agar colony formation assay is a widely used method to measure the capability of anchorage-independent cell growth in vitro. Thus, the suppressive effect of Compound 9b on Anchorage-independent cell growth by soft agar colony formation assay.
SH-SY5Y cells were seeded in a 6-well plate with 1.2% agar (4×10^5 cells/well) and Compound 9b was added at concentrations of 1 μM, 3 μM and 5 μM and cultured for 1-2 weeks. DMSO (0.5%) was used as a negative control. After incubation, colonies were stained using by 0.05% crystal violet for 10 minutes. The colonies were washed by 3rd distilled water and captured.

[2] = test system: non-small cell lung cancer cell line H1975; assay: Anti-proliferative activity in H1975 cell line; format: cell-based; conditions: Homo sapiens, NCI-H1975
[3] = test system: lung cancer cell line A549; assay: Anti-proliferative activity in A549 cell line; format: cell-based; conditions: Homo sapiens
[4] = test system: cervical cancer cell line HeLa; assay: Anti-proliferative activity in HeLa cell line; format: cell-based; conditions: Homo sapiens
[5] = test system: human neuroblastoma cell line SH-SY5Y; assay: Anti-proliferative activity in SH-SY5Y cell line; format: cell-based; conditions: half maximal growth inhibition concentration, after 72 hours
Procedure: Anti-proliferative activity against human neuroblastoma cell line SH-SY5Y, an in vitro model of human malignant metastatic neuroblastoma, was investigated using the compounds synthesized through the above Examples 1 to 4.
SH-SY5Y cells were cultured in DMEM (Dulbecco's Modified Eagle's Media) with L-glutamine supplemented with […] of streptomycin, 100 units/mL of penicillin and 10% fetal bovine serum (FBS). The cells were grown to confluence in a humidified atmosphere (37° C., 5% CO2).

| Compound | GI50 ([1]; Homo sapiens) [µM] | also measured |
| --- | --- | --- |
| CCCn1c(-c2ccc(C(=O)NO)cc2)nc2ccccc21 [Compound 6c, N-hydroxy-4-(1-propyl-1H-benzo[d]imidazol-2-yl)benzamide] | 44.6 | – |
| O=C(NO)c1ccc(-c2nc3ccccc3s2)cc1 [Compound 9b, 4-(benzo[d]thiazol-2-yl)-N-hydroxybenzamide] | 3.86 | ability of SH-SY5Y cells to form colonies (SH-SY5Y cells; 1 μM, 3 μM and 5 μM): decreased in a dose-dependent manner; anchorage-independent cell growth of SH-SY5Y neuroblastoma (SH-SY5Y cells; 3 μM): almost completely inhibited; GI50 [2]: 3.71 µM; GI50 [3]: 15.6 µM; GI50 [4]: 13.5 µM |
| CCn1c(-c2cccc(C(=O)NO)c2)nc2ccccc21 [Compound 14b, 3-(1-Ethyl-1H-benzo[d]imidazol-2-yl)-N-hydroxybenzamide] | > 100 | – |
| CCCCn1c(-c2ccc(C(=O)NO)cc2)nc2ccccc21 [Compound 6d, 4-(1-butyl-1H-benzo[d]imidazol-2-yl)-N-hydroxybenzamide] | 35.5 | – |
| Cn1c(-c2ccc(C(=O)NO)cc2)nc2ccccc21 [Compound 6a, N-hydroxy-4-(1-methyl-1H-benzo[d]imidazol-2-yl)benzamide] | 40.3 | – |
| O=C(NO)c1cccc(-c2nc3ccccc3s2)c1 [Compound 17b, 3-(benzo[d]thiazol-2-yl)-N-hydroxybenzamide] | 23.1 | – |
| O=C(CCCCCCC(=O)Nc1ccccc1)NO [SAHA, reference compound] | – | GI50 [1]: 3.16 µM; GI50 [5]: 2.9 µM |
| CCCCn1c(-c2cccc(C(=O)NO)c2)nc2ccccc21 [Compound 14d, 3-(1-Butyl-1H-benzo[d]imidazol-2-yl)-N-hydroxybenzamide] | 60.8 | – |
| O=C(NO)c1cccc(-c2nc3ccccc3[nH]2)c1 [Compound 13, 3-(1H-benzo[d]amidazol-2-yl)-N-hydroxybenzamide] | – | GI50 [1]: > 100 µM; GI50 [5]: > 100 µM |
| Cn1c(-c2cccc(C(=O)NO)c2)nc2ccccc21 [Compound 14a, N-hydroxy-3-(1-methyl-1H-benzo[d]imidazol-2-yl)benzamide] | > 100 | – |
| CCn1c(-c2ccc(C(=O)NO)cc2)nc2ccccc21 [Compound 6b, 4-(1-ethyl-1H-benzo[d]imidazol-2-yl)-N-hydroxybenzamide] | 15.6 | – |
| O=C(NO)c1cccc(-c2nc3ccccc3o2)c1 [Compound 17a, 3-(Benzo[d]oxazol-2-yl)-N-hydroxybenzamide] | 47.9 | – |
| O=C(NO)c1ccc(-c2nc3ccccc3o2)cc1 [Compound 9a, 4-(benzo[d]oxazol-2-yl)-N-hydroxybenzamide] | 8.31 | – |
| O=C(NO)c1ccc(-c2nc3ccccc3[nH]2)cc1 [Compound 5, 4-(1H-benzo[d]imidazol-2-yl)-N-hydroxybenzamide] | 15.6 | – |
| CCCn1c(-c2cccc(C(=O)NO)c2)nc2ccccc21 [Compound 14c, N-hydroxy-3-(1-propyl-1H-benzo[d]imidazol-2-yl)benzamide] | 62.1 | – |
